Activity calls are given as the source filed them. Cut-off read from the data, not from the text of the source, for most assays here: actives have a measured IC50 and inactives only a lower limit. Bounds are passed on as bounds.

What is called AC50 is the midpoint of the concentration-response curve, whichever way the signal moves. In general, IC50 refers to the midpoint of a concentration-inhibition curve.

The target in assay [1] is T1, Histone-lysine N-methyltransferase NSD2 (Homo sapiens, UniProt O96028).
T1 sequence (O96028 whole entry): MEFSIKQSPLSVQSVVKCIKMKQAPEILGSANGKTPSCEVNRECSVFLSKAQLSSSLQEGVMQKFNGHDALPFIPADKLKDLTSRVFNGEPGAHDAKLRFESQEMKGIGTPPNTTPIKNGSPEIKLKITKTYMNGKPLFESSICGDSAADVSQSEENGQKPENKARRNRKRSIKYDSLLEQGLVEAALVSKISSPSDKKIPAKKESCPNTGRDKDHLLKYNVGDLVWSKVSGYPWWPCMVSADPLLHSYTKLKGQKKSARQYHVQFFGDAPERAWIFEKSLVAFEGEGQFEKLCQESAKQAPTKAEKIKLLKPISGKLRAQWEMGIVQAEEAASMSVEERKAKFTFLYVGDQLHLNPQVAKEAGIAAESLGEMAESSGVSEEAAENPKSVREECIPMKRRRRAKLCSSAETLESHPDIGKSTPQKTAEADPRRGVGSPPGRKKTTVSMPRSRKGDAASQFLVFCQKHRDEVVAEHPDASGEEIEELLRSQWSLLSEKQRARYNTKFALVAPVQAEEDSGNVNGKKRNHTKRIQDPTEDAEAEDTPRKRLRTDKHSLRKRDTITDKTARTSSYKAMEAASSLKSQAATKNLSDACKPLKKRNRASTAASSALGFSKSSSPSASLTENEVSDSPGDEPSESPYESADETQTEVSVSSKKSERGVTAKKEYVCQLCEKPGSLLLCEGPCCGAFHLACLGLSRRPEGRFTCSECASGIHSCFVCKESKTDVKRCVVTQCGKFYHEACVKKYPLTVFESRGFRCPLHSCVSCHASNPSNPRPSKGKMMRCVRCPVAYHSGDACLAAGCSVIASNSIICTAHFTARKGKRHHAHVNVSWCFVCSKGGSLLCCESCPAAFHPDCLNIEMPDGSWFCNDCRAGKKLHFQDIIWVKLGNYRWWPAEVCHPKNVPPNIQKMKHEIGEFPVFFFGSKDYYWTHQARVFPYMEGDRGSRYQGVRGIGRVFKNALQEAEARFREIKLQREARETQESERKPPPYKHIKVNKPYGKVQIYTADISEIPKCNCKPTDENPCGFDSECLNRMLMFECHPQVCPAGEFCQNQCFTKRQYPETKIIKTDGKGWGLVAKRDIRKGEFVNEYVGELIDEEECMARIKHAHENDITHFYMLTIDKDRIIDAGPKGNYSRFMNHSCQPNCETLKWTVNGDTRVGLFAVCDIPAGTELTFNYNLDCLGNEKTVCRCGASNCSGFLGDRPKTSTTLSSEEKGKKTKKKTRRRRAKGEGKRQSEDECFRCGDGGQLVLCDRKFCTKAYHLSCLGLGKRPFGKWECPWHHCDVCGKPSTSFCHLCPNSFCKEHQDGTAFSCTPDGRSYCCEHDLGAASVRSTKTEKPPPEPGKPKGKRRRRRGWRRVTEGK
The format is biochemical.

A further assay concerns the target T2, Caspase-3 (Homo sapiens, UniProt P42574).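 Note: Dose-response selectivity test against caspase-3 for candidate inhibitors of sentrin-specific proteases (SENPs).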
T2 sequence (P42574 whole entry): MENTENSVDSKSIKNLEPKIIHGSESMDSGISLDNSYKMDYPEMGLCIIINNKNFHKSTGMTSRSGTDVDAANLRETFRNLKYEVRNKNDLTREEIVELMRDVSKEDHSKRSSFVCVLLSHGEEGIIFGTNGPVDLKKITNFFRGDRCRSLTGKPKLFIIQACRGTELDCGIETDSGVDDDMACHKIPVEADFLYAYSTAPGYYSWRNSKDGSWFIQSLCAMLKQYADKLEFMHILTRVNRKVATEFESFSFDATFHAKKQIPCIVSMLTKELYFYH
The format is functional.

For assay [2], the target named is T3, Apoptotic protease-activating factor 1 (Homo sapiens, UniProt O14727).
T3 sequence (O14727 whole entry): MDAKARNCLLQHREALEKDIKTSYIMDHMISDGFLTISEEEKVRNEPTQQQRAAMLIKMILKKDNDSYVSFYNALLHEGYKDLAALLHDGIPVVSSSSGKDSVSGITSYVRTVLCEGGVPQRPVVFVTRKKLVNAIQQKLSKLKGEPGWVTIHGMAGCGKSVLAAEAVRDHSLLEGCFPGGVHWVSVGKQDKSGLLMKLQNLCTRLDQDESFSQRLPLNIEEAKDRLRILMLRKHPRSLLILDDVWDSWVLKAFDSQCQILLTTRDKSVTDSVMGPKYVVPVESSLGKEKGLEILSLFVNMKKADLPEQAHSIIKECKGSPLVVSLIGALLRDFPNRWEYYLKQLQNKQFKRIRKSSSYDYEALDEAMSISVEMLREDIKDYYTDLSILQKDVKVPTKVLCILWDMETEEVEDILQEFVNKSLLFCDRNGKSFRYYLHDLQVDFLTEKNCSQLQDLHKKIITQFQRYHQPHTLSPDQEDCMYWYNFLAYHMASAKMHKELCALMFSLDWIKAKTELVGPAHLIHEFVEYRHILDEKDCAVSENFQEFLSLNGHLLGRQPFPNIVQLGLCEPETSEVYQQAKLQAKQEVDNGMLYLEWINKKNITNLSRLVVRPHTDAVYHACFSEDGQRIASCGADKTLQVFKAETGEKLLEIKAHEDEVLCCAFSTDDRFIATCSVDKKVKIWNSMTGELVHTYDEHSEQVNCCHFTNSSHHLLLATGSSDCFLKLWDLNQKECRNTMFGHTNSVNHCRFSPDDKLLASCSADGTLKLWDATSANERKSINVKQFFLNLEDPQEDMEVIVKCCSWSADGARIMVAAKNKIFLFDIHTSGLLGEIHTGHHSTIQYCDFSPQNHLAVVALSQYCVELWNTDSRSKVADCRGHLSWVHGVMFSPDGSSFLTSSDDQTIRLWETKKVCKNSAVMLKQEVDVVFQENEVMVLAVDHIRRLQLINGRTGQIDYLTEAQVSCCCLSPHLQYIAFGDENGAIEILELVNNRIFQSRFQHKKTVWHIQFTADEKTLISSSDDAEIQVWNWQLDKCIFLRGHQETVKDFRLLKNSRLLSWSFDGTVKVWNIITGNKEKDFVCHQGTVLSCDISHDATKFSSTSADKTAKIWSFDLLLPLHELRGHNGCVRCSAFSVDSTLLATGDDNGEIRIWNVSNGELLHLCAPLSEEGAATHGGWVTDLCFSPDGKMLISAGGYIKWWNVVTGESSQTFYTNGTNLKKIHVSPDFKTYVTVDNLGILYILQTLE
The format is functional.

In the case of `COC1=C(c2ccccc2)C(=O)c2ccccc2C1=O`, in assay [1], the AC50 is > 20 µM (inactive).

For `O=C1C(Cl)=C(N2CCC(C(=O)O)CC2)C(=O)c2ccccc21`, the IC50 on Caspase-3 was 15.6 µM (active); in assay [2], 13.4 µM (active). In assay [1], the AC50 was 1.46 µM (active).

With `COc1cc2c(cc1OC)-c1c(OC)c(OC)cc3c1[C@H](C2)N(C)CC3`, the half-inhibitory concentration (IC50) at Caspase-3 is < 1.55 µM (active); in assay [2], 2.82 µM (active).

The record behind these values is ChEMBL document CHEMBL1201862, “PubChem BioAssay data set” (2004).
